Drawing on PubChem BioAssay AID488881 (Sanford-Burnham Center for Chemical Genomics, 2010), this text covers EC50 for 42 compounds.

The target of this assay is Type-1 angiotensin II receptor (Homo sapiens) (UniProt P30556). Put plainly: AGTR1 activation selectivity check – cell-based, CHO-K1 PathHunter, luminescence, selectivity assay for APJ agonist project, SAR follow-up (AID 488881). As to conditions: CHO-K1 AGTR1 PathHunter beta-arrestin.

SMILES strings stand for the structures. Activity calls are given as the source filed them.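 Rule for the calls: active = mean EC50 below 10 µM; inactive = the rest.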

Type-1 angiotensin II receptor (Homo sapiens), sequence (P30556 whole entry, looked up): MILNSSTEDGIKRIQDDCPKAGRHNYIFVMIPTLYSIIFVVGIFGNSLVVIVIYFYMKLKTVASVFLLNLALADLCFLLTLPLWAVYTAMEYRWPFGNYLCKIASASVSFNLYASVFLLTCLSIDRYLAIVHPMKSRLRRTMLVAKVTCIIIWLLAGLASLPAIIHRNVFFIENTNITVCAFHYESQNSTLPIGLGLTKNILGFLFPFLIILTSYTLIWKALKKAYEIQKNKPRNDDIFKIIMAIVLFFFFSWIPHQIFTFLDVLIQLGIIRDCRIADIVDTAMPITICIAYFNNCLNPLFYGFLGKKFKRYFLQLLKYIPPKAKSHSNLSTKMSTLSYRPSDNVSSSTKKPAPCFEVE

Usually EC50 stands for the concentration that produces a half-maximal response. As for `CCc1c(O)nc(SCc2ccccc2)n(C2CCCCC2)c1=O`, the EC50 was > 79 µM (inactive). With `CC1=CC(=NOS(=O)(=O)c2ccccc2)C=CC1=O` the figure was > 79 µM (inactive); with `CSc1nc(=O)cc(N)n1-c1ccc(C)cc1`, > 79 µM (inactive). `CC1=CC(=O)C(C(C)C)=CC1=NOS(=O)(=O)c1ccccc1`: the EC50 is > 79 µM (inactive). With `CCc1c(O)n(C2CCCCC2)c(=S)[nH]c1=O` the figure was > 79 µM (inactive); with `CN(C)CCSc1nc(O)c(-c2ccccc2)c(=O)n1-c1ccccc1`, > 79 µM (inactive). For `COc1ccc(S(=O)(=O)O/N=C2\C=C(C(C)C)C(=O)C=C2C)cc1`, the EC50 is > 79 µM (inactive). For `O=S(=O)(Nc1nc(-c2ccccc2)cs1)c1ccc(Br)cc1`, the EC50 was > 79 µM (inactive).

As for `CCCCSc1nc(O)c(CC)c(=O)n1C1CCCCC1`, the EC50 was > 79 µM (inactive). In the case of `CC1=C/C(=N/OS(=O)(=O)c2ccccc2)C(C)=CC1=O`, the EC50 was > 79 µM (inactive). Consider `Cc1ccc(S(=O)(=O)ON=C2C=CC(=O)C=C2)cc1`, for which the EC50 was > 79 µM (inactive). For the compound `CC1=CC(=O)C(C(C)C)=C/C1=N/OS(=O)(=O)c1ccccc1`, the EC50 is > 79 µM (inactive). On to `CC1=CC(=O)C=C/C1=N\OS(=O)(=O)c1ccc(C)cc1`, for which the EC50 was > 79 µM (inactive).

As to `Cc1cc(C)n2nc3nc(N4CCOCC4)nc(-c4ccccc4)c3c2n1`, the EC50 is > 79 µM (inactive). As for `CC1=C/C(=N/OS(=O)(=O)c2ccc(C)cc2)C=CC1=O`, the EC50 was > 79 µM (inactive).

With `CC1=CC(=NOS(=O)(=O)c2ccc(C)cc2)C=C(C)C1=O`, the EC50 was > 79 µM (inactive). In the case of `C=CCSc1nc(O)c(CC)c(=O)n1-c1ccc(C)cc1`, the EC50 is > 79 µM (inactive). With `CC1=CC(=O)C=C(C)C1=NOS(=O)(=O)c1ccccc1` the figure was > 79 µM (inactive); with `CCN1/C(=C/C(=O)c2sc(=S)n(CC)c2O)Sc2ccccc21`, > 79 µM (inactive); with `C=CCn1c(SCc2ccccc2)nc(O)c(CC)c1=O`, > 79 µM (inactive).

Turning to `CC1=CC(=NOS(=O)(=O)c2ccccc2)C=C(C)C1=O`, the EC50 is > 79 µM (inactive).

Regarding `C=CCSc1nc(O)c(CC)c(=O)n1C1CCCCC1`, the EC50 is > 79 µM (inactive). With `C=CCSc1nc(O)c(CC)c(=O)n1C(C)CC` (configuration not stated) the figure was > 79 µM (inactive); with `CC1=C/C(=N/OS(=O)(=O)c2ccc(C)cc2)C(C(C)C)=CC1=O`, > 79 µM (inactive); with `CC1=C/C(=N\OS(=O)(=O)c2ccc(Cl)cc2)C=CC1=O`, > 79 µM (inactive).

Turning to `CCCSc1nc(O)c(CC)c(=O)n1C(C)CC` (configuration not stated), the EC50 is > 79 µM (inactive). With `COc1ccccc1-n1c(SCC(=O)c2ccccc2)nc(O)cc1=O`, the EC50 was > 79 µM (inactive).

For the compound `CCSc1nc(O)c(CC)c(=O)n1C(C)CC` (configuration not stated), the EC50 was > 79 µM (inactive).

As to `CCc1c(O)nc(SCc2ccccc2)n(C(C)CC)c1=O` (configuration not stated), the EC50 is > 79 µM (inactive). `CC1=CC(=NOS(=O)(=O)c2ccc(Cl)cc2)C=C(C)C1=O`: the EC50 was > 79 µM (inactive). `CCN1/C(=C\C=C2/SC(=S)N(C)C2=O)Sc2ccccc21`: the EC50 was > 79 µM (inactive).

Consider `CC1=C(C)C(=NOS(=O)(=O)c2ccc(C)cc2)C=CC1=O`, for which the EC50 was > 79 µM (inactive). With `CCc1c(O)nc(SC(C)CC)n(C(C)CC)c1=O` (configuration not stated), the EC50 is > 79 µM (inactive). Consider `CCCCSc1nnc(NC(=O)CSc2nc3ncccc3[nH]2)s1`, for which the EC50 is > 79 µM (inactive). Under `CC1=CC(=NOS(=O)(=O)c2ccccc2)C(C(C)C)=CC1=O` stands > 79 µM (inactive); under `CCSc1nc(O)c(CC)c(=O)n1C1CCCCC1`, > 79 µM (inactive). On to `CCc1c(O)nc(SC)n(C(C)CC)c1=O` (configuration not stated), for which the EC50 is > 79 µM (inactive). As for `Cc1ccc(S(=O)(=O)Nc2nc(-c3ccccc3)cs2)cc1`, the EC50 was > 79 µM (inactive). Turning to `CCc1c(O)nc(SC)n(C2CCCCC2)c1=O`, the EC50 is > 79 µM (inactive). `O=S(=O)(Nc1nc(-c2ccccc2)cs1)c1ccc(Cl)cc1`: the EC50 was > 79 µM (inactive).

With `COc1ccc(S(=O)(=O)ON=C2C=C(C)C(=O)C(C)=C2)cc1`, the EC50 is > 79 µM (inactive).

In the case of `CC1=C/C(=N\OS(=O)(=O)c2ccc(C)cc2)C(C)=CC1=O`, the EC50 is > 79 µM (inactive).
